Reference: US20110028409A1, “DETECTION OF ANTI-RIBOSOMAL P PROTEIN ANTIBODIES BY MEANS OF SYNTHETIC PEPTIDES” (TOSCANA BIOMARKERS S.R.L., priority 2009, published 2011)
Ends that are not written are not given here.

Assays:
[1] = test system: anti-ribosomal P protein antibodies (IgG) in serum samples; test: Antibody detection by covalent ELISA (peptide covalently linked to plate); format: binding, human; settings: for healthy donor positive sera (%): 6 healthy donor sera diluted 1:100; for SLE positive sera (%): 8 SLE sera diluted 1:100; for SLE positive sera (positive/tested): SLE sera diluted 1:100; for healthy donor positive sera (positive/tested): healthy donor sera diluted 1:100
Protocol: A peptide, prepared as described in example 1, was covalently linked to a 96-wells microtitre plate (carboxy or amine binding plate) using sulfo-N-hydroxysuccinimide and 1-ethyl-3-(3-dimethylaminopropyl)carbodiimide. Peptide coupling took place for 2 h at r.t. The plate was blocked for 1 h with 5% FBS in PBS or with 0.5 M Gly (pH 8). The patients serum samples were diluted 1:100 in FBS buffer and were then loaded onto the plate for 1.5 h at r.t. After plate washings, an anti human-IgG antibody conjugated to the enzyme alkaline phosphatase was added and incubated for 1.5 h at r.t. After washings, the alkaline phosphate substrate p-nitrophenyl phosphate was added to the wells. After the quenching of the enzymatic reaction with 1 M NaOH, the absorbance was evaluated at a wavelength of 405 nm.

[2] = test system: anti-ribosomal P protein antibodies (IgG) in serum samples; test: Antibody detection by ELISA (peptide adsorbed onto microtitre plate); format: binding, human
Protocol: A peptide, prepared as described in example 1 and diluted in 0.05 M carbonate buffer (pH 9.6) or in PBS buffer (pH 7.4) was adsorbed onto 96-wells microtitre plates for 4 h at r.t. The wells were treated for 1 h at r.t. with FBS (FBS 5% in PBS). The patients serum samples (diluted 1:100) were then loaded onto the plate and allowed to react overnight at +4° C. After plate washing, an anti human-IgG antibody conjugated to the enzyme alkaline phosphatase was added and incubated for 3 h at r.t. After washings, the alkaline phosphate substrate p-nitrophenyl phosphate was added to the wells. After the quenching of the enzymatic reaction with 1 M NaOH, the absorbance was evaluated at a wavelength of 405 nm.
In total, 25 serum samples of patients suffering from SLE and 68 serum of healthy blood donors were tested by this method.

[3] = test system: SLE specific auto-antibodies in patients sera; settings: literature; cited from earlier work

| Substance | healthy donor positive sera (%) [1] [%] | SLE positive sera (%) [1] [%] | SLE positive sera (positive/tested) [1] | healthy donor positive sera (positive/tested) [1] | SLE positive sera (%) ([2]; 25 SLE sera, diluted 1:100, adsorbed peptide) | healthy donor positive sera (%) ([2]; 68 healthy blood donor sera, diluted 1:100, adsorbed peptide) | number of SLE sera negative to peptide 9 in which anti ribosomal antibodies were detected ([2]; SLE serum negative to peptide 9) | number of peptide 9-positive SLE sera showing cross-reactivity with peptide 1 ([2]; among the SLE sera positive to peptide 9) | healthy donor positive sera (positive/tested) ([2]; sera of healthy blood donors, diluted 1:100, adsorbed peptide) | SLE positive sera (positive/tested) ([2]; sera of patients suffering from SLE, diluted 1:100, adsorbed peptide, absorbance 405 nm) | patients sera in which SLE specific auto-antibodies are detected [3] |
| --- | --- | --- | --- | --- | --- | --- | --- | --- | --- | --- | --- |
| GVNVEPFWPGL [Peptide 3] | 0 | 12 | 1/8 | 0/6 |  |  |  |  |  |  |  |
| LIKAAGVNVE [Peptide 2] | 0 | 37 | 3/8 | 0/6 |  |  |  |  |  |  |  |
| LIKAAGVNVEPFWPGLFAKA [Peptide 1, linear peptide derived from the N-terminal region of human ribosomal P1 protein] | 0 | 50 | 4/8 | 0/6 | 32 | 1 | 3 | 4 | 1/68 | 8/25 |  |
| NH2-Lys-Lys-Glu-Glu-Lys-Lys-Glu-Glu-Ser-Glu-Glu-Glu-Asp-Glu-Asp-Met-Gly-Phe-Gly-Leu-Phe-Asp-COOH (H-KKEEKKEESEEEDEDMGFGLFD-OH) [Peptide C-22, peptide comprising the last 22 amino acids of ribosomal P proteins] |  |  |  |  |  |  |  |  |  |  | 10-20% |
| PFWPGLFAKA [Peptide 4] | 0 | 12 | 1/8 | 0/6 |  |  |  |  |  |  |  |
